Where two headings read alike, the source gives them in different places.
Target: T1, GLP-1 Receptor (GLP1R) (Homo sapiens, UniProt P43220)
T1 construct: host or cells: HEK293/GLP1R/CRE-LUC
Test: GLP-1R agonist cAMP stimulation assay (Method 3)
Type: cell-based
Conditions: HEK293/GLP1R/CRE-LUC cells (HDB), Method 3, 30 min incubation
How it was run: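 HEK293 CRE-Luc cells stably expressing GLP-1R (1000 cells/well) were exposed to ½-log serially diluted compound in DPBS with 0.5 mM IBMX and 0.1% BSA for 30 min at 37 °C. cAMP was quantified by HTRF (cAMP-d2/anti-cAMP cryptate), 1 h at room temperature, read at 665/615 nm.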

[1] = read-out: GLP1R cAMP Stimulation DR: EC50 (nM) [Species: Human, Assay Cell Line: HDB]
[2] = read-out: GLP1R cAMP Stimulation DR: pEC50 (M) [Species: Human, Assay Cell Line: HDB] (converted)

T1 sequence (P43220 24-463): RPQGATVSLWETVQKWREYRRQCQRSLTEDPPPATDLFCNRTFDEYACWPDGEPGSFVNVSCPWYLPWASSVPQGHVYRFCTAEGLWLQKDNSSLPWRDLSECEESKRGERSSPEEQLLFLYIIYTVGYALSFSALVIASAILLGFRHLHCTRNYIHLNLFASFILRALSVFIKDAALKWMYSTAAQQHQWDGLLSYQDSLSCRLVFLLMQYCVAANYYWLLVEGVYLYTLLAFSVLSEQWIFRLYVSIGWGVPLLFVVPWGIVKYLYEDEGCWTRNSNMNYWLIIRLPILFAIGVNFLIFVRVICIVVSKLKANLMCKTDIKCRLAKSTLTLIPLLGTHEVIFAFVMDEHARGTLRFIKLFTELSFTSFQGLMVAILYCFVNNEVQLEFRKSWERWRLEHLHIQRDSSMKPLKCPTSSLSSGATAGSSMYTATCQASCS

Row | EC50 [1] | EC50 [2] | SMILES
1 | < 0.1 nM | ≤ 0.1 nM | CCP(=O)(CC)c1ccc(-n2ccn(-c3c4c(nn3-c3cc(C)c(F)c(C)c3)CCN(C(=O)c3cc5cc(C6CCOCC6)ccc5n3[C@@]3(c5noc(=O)[nH]5)C[C@@H]3C)[C@H]4C)c2=O)c(F)c1NC [Compound 145a, 3-((1S,2S)-1-(2-((S)-3-(3-(4-(diethylphosphoryl)-2-fluoro-3-(methylamino)phenyl)-2-oxo-2,3-dihydro-1H-imidazol-1-yl)-2-(4-fluoro-3,5-dimethylphenyl)-4-methyl-4,5,6,7-tetrahydro-2H-pyrazolo[4,3-c]pyridine-5-carbonyl)-5-(tetrahydro-2H-pyran-4-yl)-1H-indol-1-yl)-2-methylcyclopropyl)-1,2,4-oxadiazol-5(4H)-one]
2 | < 0.1 nM | ≤ 0.1 nM | CCP(=O)(CC)c1ccc(-n2ccn(-c3c4c(nn3-c3cc(C)c(F)c(C)c3)CCN(C(=O)c3cc5cc([C@@H]6CCOC(C)(C)C6)ccc5n3[C@@]3(c5noc(=O)[nH]5)C[C@@H]3C)[C@H]4C)c2=O)cc1NC [Compound 146a, 3-((1S,2S)-1-(2-((S)-3-(3-(4-(diethylphosphoryl)-3-(methylamino)phenyl)-2-oxo-2,3-dihydro-1H-imidazol-1-yl)-2-(4-fluoro-3,5-dimethylphenyl)-4-methyl-4,5,6,7-tetrahydro-2H-pyrazolo[4,3-c]pyridine-5-carbonyl)-5-((R)-2,2-dimethyltetrahydro-2H-pyran-4-yl)-1H-indol-1-yl)-2-methylcyclopropyl)-1,2,4-oxadiazol-5(4H)-one]
3 | < 0.1 nM | ≤ 0.1 nM | CCP(=O)(CC)c1ccc(-n2ccn(-c3c4c(nn3-c3cc(C)c(F)c(C)c3)CCN(C(=O)c3cc5cc([C@H]6CCOC(C)(C)C6)ccc5n3[C@@]3(c5noc(=O)[nH]5)C[C@@H]3C)[C@H]4C)c2=O)cc1NC [Compound 146b, 3-((1S,2S)-1-(2-((S)-3-(3-(4-(diethylphosphoryl)-3-(methylamino)phenyl)-2-oxo-2,3-dihydro-1H-imidazol-1-yl)-2-(4-fluoro-3,5-dimethylphenyl)-4-methyl-4,5,6,7-tetrahydro-2H-pyrazolo[4,3-c]pyridine-5-carbonyl)-5-((S)-2,2-dimethyltetrahydro-2H-pyran-4-yl)-1H-indol-1-yl)-2-methylcyclopropyl)-1,2,4-oxadiazol-5(4H)-one]
4 | 0.5 to 5 nM | 1 to 10 nM | Cc1cc(-n2nc3c(c2-n2ccn(Cc4cccc(P(C)(C)=O)c4)c2=O)[C@H](C)N(C(=O)c2cc4cc(C5CCOCC5)ccc4n2[C@@]2(c4noc(=O)[nH]4)C[C@@H]2C)CC3)cc(C)c1F [Compound 147a, 3-((1S,2S)-1-(2-((S)-3-(3-(3-(dimethylphosphoryl)benzyl)-2-oxo-2,3-dihydro-1H-imidazol-1-yl)-2-(4-fluoro-3,5-dimethylphenyl)-4-methyl-4,5,6,7-tetrahydro-2H-pyrazolo[4,3-c]pyridine-5-carbonyl)-5-(tetrahydro-2H-pyran-4-yl)-1H-indol-1-yl)-2-methylcyclopropyl)-1,2,4-oxadiazol-5(4H)-one]
5 | < 0.1 nM | ≤ 0.1 nM | CNc1cc(-n2ccn(-c3c4c(nn3-c3cc(C)c(F)c(C)c3)CCN(C(=O)c3cc5cc(C6CCOCC6)ccc5n3C3(c5noc(=O)[nH]5)CC3)[C@H]4C)c2=O)ccc1P(=O)(C1CC1)C1CC1 [Compound 148a, (S)-3-(1-(2-(3-(3-(4-(dicyclopropylphosphoryl)-3-(methylamino)phenyl)-2-oxo-2,3-dihydro-1H-imidazol-1-yl)-2-(4-fluoro-3,5-dimethylphenyl)-4-methyl-4,5,6,7-tetrahydro-2H-pyrazolo[4,3-c]pyridine-5-carbonyl)-5-(tetrahydro-2H-pyran-4-yl)-1H-indol-1-yl)cyclopropyl)-1,2,4-oxadiazol-5(4H)-one]
6 | 0.1 to 0.2 nM | 0.1 to 1 nM | CCP(=O)(CC)c1ccc(-n2ccn(-c3c4c(nn3-c3cc(C)c(F)c(C)c3)CCN(C(=O)c3cc5cc(N6CCOC(C)(C)C6)ccc5n3[C@@]3(c5noc(=O)[nH]5)C[C@@H]3C)[C@H]4C)c2=O)cc1NC [Compound 150a, 3-((1S,2S)-1-(2-((S)-3-(3-(4-(diethylphosphoryl)-3-(methylamino)phenyl)-2-oxo-2,3-dihydro-1H-imidazol-1-yl)-2-(4-fluoro-3,5-dimethylphenyl)-4-methyl-4,5,6,7-tetrahydro-2H-pyrazolo[4,3-c]pyridine-5-carbonyl)-5-(2,2-dimethylmorpholino)-1H-indol-1-yl)-2-methylcyclopropyl)-1,2,4-oxadiazol-5(4H)-one]
